Values joined by “and” are separate entries in the source; they are usually repeats but may differ in a detail not shown here. Identical values can stand only once. Inconclusive results and toxic doses are left out. Rule for the calls: active = survival T/C of 150% or more; inactive = T/C below 125% in these data.
System: BDF1 mice, B16 melanoma ip, median survival T/C
Experiment: NCI In Vivo Anticancer Drug Screen. Data for tumor model B16 Melanoma (intraperitoneal) in B6D2F1 (BDF1) mice
Conditions: endpoint: median survival time, higher = longer survival
Method in brief: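 Read-out: survival or tumor size, given as treated/control ratio. Controls received vehicle only; animals bore transplantable tumors.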

[1] = dose: 3.12 mg/kg/injection, schedule: Q01DX009 (ip), vehicle: saline
[2] = dose: 6.25 mg/kg/injection, schedule: Q01DX009 (ip), vehicle: saline
[3] = dose: 12.5 mg/kg/injection, schedule: Q01DX009 (ip), vehicle: saline
[4] = dose: 25.0 mg/kg/injection, schedule: Q01DX009 (ip), vehicle: saline
[5] = dose: 6.25 mg/kg/injection, schedule: Q01DX009 (ip), vehicle: other
[6] = dose: 12.5 mg/kg/injection, schedule: Q01DX009 (ip), vehicle: other
[7] = dose: 25.0 mg/kg/injection, schedule: Q01DX009 (ip), vehicle: other
[8] = dose: 12.5 mg/kg/injection, schedule: Q01DX009 (ip), vehicle: saline with Tween-80
[9] = dose: 25.0 mg/kg/injection, schedule: Q01DX009 (ip), vehicle: saline with Tween-80
[10] = dose: 50.0 mg/kg/injection, schedule: Q01DX009 (ip), vehicle: saline with Tween-80
[11] = dose: 100.0 mg/kg/injection, schedule: Q04DX003 (ip), vehicle: saline with Tween-80
[12] = dose: 100.0 mg/kg/injection, schedule: Q01DX009 (ip), vehicle: saline with Tween-80
[13] = dose: 200.0 mg/kg/injection, schedule: Q01DX009 (ip), vehicle: Klucel (hydroxypropylcellulose) (HPC)
[14] = dose: 25.0 mg/kg/injection, schedule: Q01DX009 (ip), vehicle: Klucel (hydroxypropylcellulose) (HPC)
[15] = dose: 50.0 mg/kg/injection, schedule: Q01DX009 (ip), vehicle: Klucel (hydroxypropylcellulose) (HPC)
[16] = dose: 100.0 mg/kg/injection, schedule: Q01DX009 (ip), vehicle: Klucel (hydroxypropylcellulose) (HPC)
[17] = dose: 400.0 mg/kg/injection, schedule: Q01DX009 (ip), vehicle: Klucel (hydroxypropylcellulose) (HPC)
[18] = dose: 100.0 mg/kg/injection, schedule: Q04DX003 (ip), vehicle: Klucel (hydroxypropylcellulose) (HPC)
[19] = dose: 200.0 mg/kg/injection, schedule: Q04DX003 (ip), vehicle: Klucel (hydroxypropylcellulose) (HPC)
[20] = dose: 400.0 mg/kg/injection, schedule: Q04DX003 (ip), vehicle: Klucel (hydroxypropylcellulose) (HPC)
[21] = dose: 200.0 mg/kg/injection, schedule: Q01DX009 (ip), vehicle: saline with Tween-80
[22] = dose: 12.5 mg/kg/injection, schedule: Q01DX009 (ip), vehicle: Klucel (hydroxypropylcellulose) (HPC)
[23] = dose: 50.0 mg/kg/injection, schedule: Q01DX009 (ip), vehicle: saline
[24] = dose: 100.0 mg/kg/injection, schedule: Q01DX009 (ip), vehicle: saline
[25] = dose: 200.0 mg/kg/injection, schedule: Q01DX009 (ip), vehicle: saline

Measured: T/C

CN(C)CCC1(c2ccccc2)C=Cc2ccccc21 (configuration not stated)
inactive: [1] 108 % of control | [2] 102 % of control | [3] 108 % of control | [4] 95 % of control

COc1ccc(CN(CCOC(=O)c2ccc(OC)cc2)CCN(CCOC(=O)c2ccc(OC)cc2)Cc2ccc(OC)cc2)cc1
inactive: dose: 3.12 mg/kg/injection, schedule: Q01DX009 (ip), vehicle: other 100 % of control | [5] 89 % of control | [6] 90 % of control | [7] 92 % of control

O=[N+]([O-])c1ccc(S(=O)(=O)N/N=C\c2ccc(Cl)c(Cl)c2)cc1
inactive: [8] 109 % of control | [9] 114 % of control | [10] 112 % of control

CC(=O)Nc1cc2c(cc1Br)-c1ccccc1C2O (configuration not stated)
inactive: [8] 92 % of control | dose: 12.5 mg/kg/injection, schedule: Q04DX003 (ip), vehicle: saline with Tween-80 92 % of control | [9] 102 % of control | dose: 25.0 mg/kg/injection, schedule: Q04DX003 (ip), vehicle: saline with Tween-80 100 % of control | [10] 89 % of control | dose: 50.0 mg/kg/injection, schedule: Q04DX003 (ip), vehicle: saline with Tween-80 95 % of control | [11] 90 % of control

c1ccc([P+](C[P+](c2ccccc2)(c2ccccc2)c2ccccc2)(c2ccccc2)c2ccccc2)cc1
inactive: dose: 0.75 mg/kg/injection, schedule: Q01DX009 (ip), vehicle: saline 87 % of control | dose: 1.5 mg/kg/injection, schedule: Q01DX009 (ip), vehicle: saline 93 % of control

COc1cc2ccc(CC(=O)NCc3ccccc3)cc2cc1OC
inactive: [12] 122 % of control | dose: 135.0 mg/kg/injection, schedule: Q01DX009 (ip), vehicle: Klucel (hydroxypropylcellulose) (HPC) 123 % of control | [13] 110 % of control

CC(C)(c1ccccc1)c1ccc(O)cc1
inactive: dose: 37.5 mg/kg/injection, schedule: Q01DX009 (ip), vehicle: other 97 % of control | dose: 75.0 mg/kg/injection, schedule: Q01DX009 (ip), vehicle: other 100 % of control | dose: 150.0 mg/kg/injection, schedule: Q01DX009 (ip), vehicle: other 94 % of control | dose: 150.0 mg/kg/injection, schedule: Q04DX003 (ip), vehicle: saline + alcohol 90 % of control | dose: 300.0 mg/kg/injection, schedule: Q01DX009 (ip), vehicle: other 94 % of control | dose: 300.0 mg/kg/injection, schedule: Q04DX003 (ip), vehicle: saline + alcohol 104 % of control | dose: 600.0 mg/kg/injection, schedule: Q04DX003 (ip), vehicle: saline + alcohol 95 % of control

CCc1cnccc1C
inactive: [14] 100 % of control | [15] 112 % of control

C=C1C(=O)OC2C1C(OC(=O)/C(C)=C/COC(C)=O)CC1(CO1)C1C(O)C=C(C)C21 (configuration not stated)
inactive: [5] 103 % of control | [6] 100 % of control | [7] 104 % of control

O=C1CC(c2ccc(O)cc2)CC(=O)C1C(C1CC=CCC1)N(CCCl)CCCl (configuration not stated)
inactive: [14] 88 % of control | [15] 95 % of control | [16] 90 % of control | [13] 92 % of control | [17] 97 % of control

O=C1NC(c2cccc(OCc3ccccc3)c2)Nc2ccccc21 (configuration not stated)
inactive: [14] 92 % of control | [15] 100 % of control | [16] 103 % of control | [13] 108 % of control

Cc1cc(OC(=O)Nc2ccccc2Cl)ccc1[N+](=O)[O-]
inactive: [18] 96 % of control | [19] 96 % of control | [20] 93 % of control

CC(C)CNC(=O)Nc1ccccc1C(F)(F)F
inactive: [9] 97 % of control | [10] 96 % of control | [12] 86 % of control and 93 % of control | [21] 105 % of control | dose: 400.0 mg/kg/injection, schedule: Q01DX009 (ip), vehicle: saline with Tween-80 97 % of control

NC(=O)c1nc2n(c1N)CCC2
inactive: [11] 102 % of control | dose: 200.0 mg/kg/injection, schedule: Q04DX003 (ip), vehicle: saline with Tween-80 105 % of control | dose: 400.0 mg/kg/injection, schedule: Q04DX003 (ip), vehicle: saline with Tween-80 94 % of control

COc1ccc(C(=O)c2ccc(C)cc2)cc1
inactive: [16] 97 % of control | [18] 88 % of control | [13] 93 % of control | [19] 95 % of control | [17] 93 % of control | [20] 102 % of control

O=C1CC2(C(=O)N1CN1CCCCC1)c1ccccc1-c1ccccc12
inactive: [22] 114 % of control | [15] 112 % of control | [16] 112 % of control | [13] 112 % of control

CC1(C)OC(=O)N(CO)C1=O
inactive: [2] 95 % of control | [3] 94 % of control and 109 % of control | [4] 94 % of control and 115 % of control | [23] 108 % of control and 115 % of control | [24] 114 % of control and 115 % of control | [25] 109 % of control and 117 % of control

CC(C)(O)C(C)(O)c1ccc(Cl)cc1 (configuration not stated)
inactive: [8] 88 % of control | [9] 91 % of control | [10] 103 % of control | [12] 104 % of control | [21] 92 % of control

Cc1ccccc1-n1c(C)nc2ccccc2c1=O
inactive: [22] 92 % of control and 108 % of control | [14] 92 % of control | [15] 88 % of control and 90 % of control | [16] 88 % of control | [13] 90 % of control

C/C=C/C=C\C1OC(O)([C@H](CC)C(=O)NC/C=C/C=C(\C)[C@H](OC)C(C)C2OC(\C=C/C=C/C=C(\C)C(=O)c3c(O)ccn(C)c3=O)[C@H](O)[C@@H]2O)C(O)C(O)C1(C)C (some centres not stated)
inactive: [4] 102 % of control | [23] 89 % of control | [24] 91 % of control | [25] 97 % of control

CC(=O)O[C@@H]1CO[C@H]2O[C@H]3[C@@H](C(C=O)=C[C@H](O)[C@@H]4C5=C(C(C)C)CC[C@]5(C)CC[C@@]34C)[C@@]2(O)C1=O
inactive: dose: 0.75 mg/kg/injection, schedule: Q01DX009 (ip), vehicle: Klucel (hydroxypropylcellulose) (HPC) 94 % of control | dose: 3.12 mg/kg/injection, schedule: Q01DX009 (ip), vehicle: Klucel (hydroxypropylcellulose) (HPC) 100 % of control | dose: 6.25 mg/kg/injection, schedule: Q01DX009 (ip), vehicle: Klucel (hydroxypropylcellulose) (HPC) 89 % of control | [22] 86 % of control

O=S(=O)(O)O.[Ga]
inactive: [3] 101 % of control | [4] 94 % of control | [23] 91 % of control

CC(C)NC1C2CCC(CC2)C1(O)c1ccc(Cl)c(Cl)c1 (configuration not stated)
inactive: dose: 0.78 mg/kg/injection, schedule: Q01DX009 (ip), vehicle: saline 108 % of control | dose: 1.56 mg/kg/injection, schedule: Q01DX009 (ip), vehicle: saline 107 % of control | [1] 107 % of control | [2] 104 % of control | [3] 102 % of control

— PubChem BioAssay AID192 (DTP/NCI, 2004)
